Results: patent US20230312752A1 (Brown University, priority 2021, published 2023)
“Also recorded” adds a separate entry of the source. Structures can show the parent of a compound that is named as a salt. Where two headings read alike, the source gives them in different places.

Tests used:
Chitinase 1 (CHIT1) = Chitinase 1 (CHIT1) (Homo sapiens, UniProt Q13231); conditions: cited from earlier work
[1] = system: pseudovirus with the ancestral G614 S protein; assay type: cell-based, SARS-CoV-2
[2] = system: pseudovirus with the G614 S protein; assay type: cell-based, SARS-CoV-2
TMPRSS2, CTSL and FURIN = assay type: cell-based, human
ERK and AKT = assay type: cell-based, human
ACE2 [3] = assay type: cell-based, human
[4] = system: influenza and other viral infections; conditions: cited from earlier work
CDK9 = CDK9 (Homo sapiens, UniProt P50750); parameters: key: + is used to indicate the potency of the inhibitor; ++++ > +++ > ++ > +; + is used to indicate the potency of the inhibitor; ++++ > +++ > ++ > +; + is used to indicate the potency of the inhibitor; ++++ > +++ > ++ > +; + is used to indicate the potency of the inhibitor; ++++ > +++ > ++ > +; ◯ refers to compounds with inhibitory effects on the related isoform, but without specific value; conditions: cited from earlier work
CDK7 = CDK7 (Homo sapiens, UniProt P50613); conditions: cited from earlier work
CDK8 = CDK8 (Homo sapiens, UniProt P49336); parameters: key: + is used to indicate the potency of the inhibitor; ++++ > +++ > ++ > +; + is used to indicate the potency of the inhibitor; ++++ > +++ > ++ > +; + is used to indicate the potency of the inhibitor; ++++ > +++ > ++ > +; + is used to indicate the potency of the inhibitor; ++++ > +++ > ++ > +; ◯ refers to compounds with inhibitory effects on the related isoform, but without specific value; conditions: cited from earlier work
CDK6 = CDK6 (Homo sapiens, UniProt Q00534); parameters: key to the marks not given beside the values; conditions: cited from earlier work
CDK3 = CDK3 (Homo sapiens, UniProt Q00526); conditions: cited from earlier work
CDK4 = CDK4 (Homo sapiens, UniProt P11802); conditions: cited from earlier work
CDK1 = CDK1 (Homo sapiens, UniProt P06493); conditions: cited from earlier work
CDK2 = CDK2 (Homo sapiens, UniProt P24941); conditions: cited from earlier work
ACE2 [5] = experiment: Immunocytochemical evaluation of ACE2 in Calu-3 cells; assay type: cell-based, human; conditions: at baseline and or after the administration of rCHI3L1; ICC, FIG. 18
[6] = system: pseudoviruses with delta S proteins; assay type: cell-based, SARS-CoV-2
[7] = system: pseudovirus containing the S protein (D614 and G614 variants); assay type: cell-based; conditions: Calu-3 cells, rCHI3L1 250 ng/mL 24 hours, GFP by flow cytometry
human and mouse CHI3L1 = experiment: Ligand binding affinity of FRG by ELISA; conditions: both human and mouse CHI3L1
Protocol: The murine monoclonal anti-CHI3L1 antibody (FRG) was generated using peptide antigen (amino acid 223-234 of human CHI3L1) as immunogen through Abmart Inc (Berkeley Heights, NJ). […] HEK-293T cells were transfected with the FRG construct using Lipofectamine™ 3000 (Invitrogen, #L3000015). Supernatant was collected for 7 days, and the antibody was purified using a protein A column (ThermoFisher scientific, #89960). Ligand binding affinity and sensitivity were assessed using ELISA techniques.

[8] = Calu-3 cells, 24 hours, FRG or KSM 250 ng/mL, RT-PCR

Chain of CDK7 (P50613 whole entry, canonical isoform): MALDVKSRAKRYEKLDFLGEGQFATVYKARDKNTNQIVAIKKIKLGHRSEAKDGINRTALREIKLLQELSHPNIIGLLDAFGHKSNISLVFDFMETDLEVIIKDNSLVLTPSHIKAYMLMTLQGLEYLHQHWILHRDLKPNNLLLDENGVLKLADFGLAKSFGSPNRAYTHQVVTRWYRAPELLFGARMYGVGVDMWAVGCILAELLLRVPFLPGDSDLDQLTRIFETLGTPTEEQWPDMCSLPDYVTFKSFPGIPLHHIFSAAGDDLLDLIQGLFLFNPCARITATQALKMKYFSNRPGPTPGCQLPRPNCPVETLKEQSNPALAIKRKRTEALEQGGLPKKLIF
Chain of CDK7 (P51946 whole entry, further chain, canonical isoform): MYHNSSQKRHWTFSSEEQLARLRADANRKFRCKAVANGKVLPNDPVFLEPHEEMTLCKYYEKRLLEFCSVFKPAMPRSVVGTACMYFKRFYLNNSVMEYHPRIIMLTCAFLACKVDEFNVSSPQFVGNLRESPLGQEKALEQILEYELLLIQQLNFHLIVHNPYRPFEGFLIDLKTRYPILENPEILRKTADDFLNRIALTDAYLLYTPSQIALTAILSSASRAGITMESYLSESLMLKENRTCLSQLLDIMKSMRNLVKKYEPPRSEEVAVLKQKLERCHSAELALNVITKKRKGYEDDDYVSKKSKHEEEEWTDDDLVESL
Chain of CDK7 (P51948 whole entry, further chain, canonical isoform): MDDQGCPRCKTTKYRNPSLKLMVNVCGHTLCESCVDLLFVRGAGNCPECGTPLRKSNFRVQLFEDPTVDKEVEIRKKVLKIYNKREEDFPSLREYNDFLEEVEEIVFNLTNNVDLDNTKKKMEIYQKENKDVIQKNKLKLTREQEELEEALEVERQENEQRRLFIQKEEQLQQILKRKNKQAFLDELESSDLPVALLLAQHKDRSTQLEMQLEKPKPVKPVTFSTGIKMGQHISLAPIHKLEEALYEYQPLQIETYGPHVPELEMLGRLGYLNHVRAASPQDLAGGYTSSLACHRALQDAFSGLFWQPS
Chain of CDK8 (P24863 whole entry, canonical isoform): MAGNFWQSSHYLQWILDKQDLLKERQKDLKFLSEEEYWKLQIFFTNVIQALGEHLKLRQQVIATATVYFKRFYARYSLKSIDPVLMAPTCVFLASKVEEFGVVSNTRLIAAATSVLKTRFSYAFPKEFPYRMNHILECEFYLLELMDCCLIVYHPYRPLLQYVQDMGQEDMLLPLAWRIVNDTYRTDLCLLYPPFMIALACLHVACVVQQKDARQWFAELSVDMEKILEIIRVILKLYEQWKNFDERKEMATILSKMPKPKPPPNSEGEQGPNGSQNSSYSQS
Chain of CDK8 (P49336 whole entry, canonical isoform): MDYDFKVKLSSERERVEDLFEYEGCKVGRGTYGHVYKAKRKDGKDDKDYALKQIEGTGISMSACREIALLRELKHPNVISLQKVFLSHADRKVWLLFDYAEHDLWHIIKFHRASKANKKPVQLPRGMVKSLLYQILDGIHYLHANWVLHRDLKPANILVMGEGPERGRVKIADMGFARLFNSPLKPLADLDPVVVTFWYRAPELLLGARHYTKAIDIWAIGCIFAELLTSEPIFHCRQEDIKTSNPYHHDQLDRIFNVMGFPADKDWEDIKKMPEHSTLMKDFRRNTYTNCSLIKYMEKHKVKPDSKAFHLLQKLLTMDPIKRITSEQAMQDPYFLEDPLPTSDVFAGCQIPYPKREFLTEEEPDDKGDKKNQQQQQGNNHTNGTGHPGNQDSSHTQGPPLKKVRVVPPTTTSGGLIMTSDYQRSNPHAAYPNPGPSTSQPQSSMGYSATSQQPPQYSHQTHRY
Chain of CDK1 (P06493 whole entry, species assumed): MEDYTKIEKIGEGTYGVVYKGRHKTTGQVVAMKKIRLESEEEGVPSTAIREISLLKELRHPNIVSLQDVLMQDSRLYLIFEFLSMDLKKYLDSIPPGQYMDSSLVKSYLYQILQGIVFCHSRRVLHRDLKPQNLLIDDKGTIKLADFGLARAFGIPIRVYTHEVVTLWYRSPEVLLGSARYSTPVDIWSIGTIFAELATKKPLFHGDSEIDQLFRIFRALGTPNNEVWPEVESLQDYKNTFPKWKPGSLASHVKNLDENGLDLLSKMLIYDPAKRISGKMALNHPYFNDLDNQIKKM
Chain of CDK1 (P14635 whole entry partner, species assumed): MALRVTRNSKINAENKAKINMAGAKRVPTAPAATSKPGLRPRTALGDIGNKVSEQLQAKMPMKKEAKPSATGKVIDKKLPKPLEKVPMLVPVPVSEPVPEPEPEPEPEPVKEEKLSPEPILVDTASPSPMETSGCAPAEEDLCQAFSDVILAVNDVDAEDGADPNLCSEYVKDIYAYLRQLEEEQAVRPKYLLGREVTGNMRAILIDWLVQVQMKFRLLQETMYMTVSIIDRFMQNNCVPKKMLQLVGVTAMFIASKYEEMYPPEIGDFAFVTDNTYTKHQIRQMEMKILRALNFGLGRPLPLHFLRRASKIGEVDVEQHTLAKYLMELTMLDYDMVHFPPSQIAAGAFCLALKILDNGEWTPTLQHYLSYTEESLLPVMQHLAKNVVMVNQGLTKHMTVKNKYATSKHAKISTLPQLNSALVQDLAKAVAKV
Chain of CDK6 (Q00534 whole entry): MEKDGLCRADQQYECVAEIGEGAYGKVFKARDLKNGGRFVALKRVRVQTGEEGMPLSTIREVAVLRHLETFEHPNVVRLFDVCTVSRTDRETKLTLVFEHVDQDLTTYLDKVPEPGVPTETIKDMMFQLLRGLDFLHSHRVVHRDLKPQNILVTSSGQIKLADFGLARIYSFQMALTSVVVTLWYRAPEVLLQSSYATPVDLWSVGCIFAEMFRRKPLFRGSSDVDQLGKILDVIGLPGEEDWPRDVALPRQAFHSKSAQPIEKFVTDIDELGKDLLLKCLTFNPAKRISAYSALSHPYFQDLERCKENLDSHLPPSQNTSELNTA
Chain of CDK6 (P30281 whole entry, further chain): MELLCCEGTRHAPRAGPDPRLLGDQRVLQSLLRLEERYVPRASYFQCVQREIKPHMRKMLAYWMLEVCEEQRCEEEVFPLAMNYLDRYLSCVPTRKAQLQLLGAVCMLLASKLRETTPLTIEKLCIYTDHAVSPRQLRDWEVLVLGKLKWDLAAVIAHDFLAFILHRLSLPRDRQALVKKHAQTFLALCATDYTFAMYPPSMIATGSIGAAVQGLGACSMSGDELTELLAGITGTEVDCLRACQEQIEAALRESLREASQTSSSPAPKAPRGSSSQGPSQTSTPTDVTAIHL
Chain of CDK9 (P50750 whole entry, canonical isoform): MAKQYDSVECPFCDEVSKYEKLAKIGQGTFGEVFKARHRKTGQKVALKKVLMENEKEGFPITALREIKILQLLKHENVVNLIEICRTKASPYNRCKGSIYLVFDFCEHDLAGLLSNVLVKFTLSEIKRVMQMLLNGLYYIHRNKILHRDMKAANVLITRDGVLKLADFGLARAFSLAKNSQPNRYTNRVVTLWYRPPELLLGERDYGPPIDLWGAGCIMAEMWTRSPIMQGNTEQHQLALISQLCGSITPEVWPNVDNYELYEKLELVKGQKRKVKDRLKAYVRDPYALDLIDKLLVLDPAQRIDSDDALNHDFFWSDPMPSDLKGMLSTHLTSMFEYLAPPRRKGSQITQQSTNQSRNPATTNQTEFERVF
Chain of CDK9 (O60563 whole entry, further chain, canonical isoform): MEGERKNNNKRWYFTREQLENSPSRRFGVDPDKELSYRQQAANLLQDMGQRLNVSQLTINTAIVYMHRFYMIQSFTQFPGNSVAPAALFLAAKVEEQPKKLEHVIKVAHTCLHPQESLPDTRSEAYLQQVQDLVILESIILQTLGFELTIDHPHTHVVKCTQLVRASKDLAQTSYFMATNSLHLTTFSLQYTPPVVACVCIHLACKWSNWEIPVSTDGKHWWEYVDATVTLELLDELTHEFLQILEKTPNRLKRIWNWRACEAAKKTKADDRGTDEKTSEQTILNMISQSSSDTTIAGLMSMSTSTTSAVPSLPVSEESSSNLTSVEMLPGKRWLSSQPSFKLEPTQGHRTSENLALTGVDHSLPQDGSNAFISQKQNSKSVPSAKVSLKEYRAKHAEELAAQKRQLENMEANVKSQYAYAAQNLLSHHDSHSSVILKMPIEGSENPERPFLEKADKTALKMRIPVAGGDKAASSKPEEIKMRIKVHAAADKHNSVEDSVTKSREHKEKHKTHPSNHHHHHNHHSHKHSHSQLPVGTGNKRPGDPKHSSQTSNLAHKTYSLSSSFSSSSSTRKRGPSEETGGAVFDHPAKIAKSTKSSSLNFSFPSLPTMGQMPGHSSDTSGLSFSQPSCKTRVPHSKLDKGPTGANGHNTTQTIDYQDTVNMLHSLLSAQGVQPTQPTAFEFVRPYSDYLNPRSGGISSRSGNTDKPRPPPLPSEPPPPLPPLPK
Chain of CDK3 (P24864 whole entry): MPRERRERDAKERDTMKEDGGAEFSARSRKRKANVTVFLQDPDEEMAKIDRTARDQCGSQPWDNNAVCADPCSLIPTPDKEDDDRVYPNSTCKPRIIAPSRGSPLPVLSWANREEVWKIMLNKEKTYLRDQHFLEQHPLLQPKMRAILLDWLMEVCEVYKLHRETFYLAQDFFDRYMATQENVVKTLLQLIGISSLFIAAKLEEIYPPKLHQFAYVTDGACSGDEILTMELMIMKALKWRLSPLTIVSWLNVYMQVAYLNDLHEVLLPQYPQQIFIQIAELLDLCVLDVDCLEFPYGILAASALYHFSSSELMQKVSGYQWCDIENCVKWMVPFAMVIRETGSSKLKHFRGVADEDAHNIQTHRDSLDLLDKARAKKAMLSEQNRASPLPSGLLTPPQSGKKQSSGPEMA
Chain of CDK3 (Q00526 whole entry): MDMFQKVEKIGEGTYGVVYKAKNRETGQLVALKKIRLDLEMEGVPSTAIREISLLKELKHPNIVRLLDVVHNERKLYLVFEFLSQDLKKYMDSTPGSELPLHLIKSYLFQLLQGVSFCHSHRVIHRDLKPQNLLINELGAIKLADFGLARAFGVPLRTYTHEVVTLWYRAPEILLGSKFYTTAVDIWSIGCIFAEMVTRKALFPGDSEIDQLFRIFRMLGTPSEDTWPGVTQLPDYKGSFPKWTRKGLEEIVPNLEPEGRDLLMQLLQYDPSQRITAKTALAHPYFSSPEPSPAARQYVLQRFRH

## C[C@H]1O[C@H](O[C@H]2[C@H](O)[C@@H](O)[C@@H](O)[C@H](O)[C@@H]2O)[C@@H](N)C[C@@H]1NC(=N)C(=O)O [Kasugamycin, 2-amino-2-[(2R,3S,5S,6R)-5-amino-2-methyl-6-[(2R,3S,5S,6S)-2,3,4,5,6-pentahydroxycyclohexyl]oxyoxan-3-yl]iminoacetic acid]
Chitinase 1 (CHIT1)
  anti-Chitinase 1 (CHIT1) activities: strong
[1]
  rCHI3L1-augmented pseudovirus uptake: abrogated
[2]
  pseudovirus uptake when exogenous CHI3L1 was not administered: diminished
TMPRSS2, CTSL and FURIN
  basal and rhCHI3L1-stimulated expression of TMPRSS2, CTSL and FURIN: potently decreased
ERK and AKT
  CHI3L1 stimulated MAPK and AKT activation: abrogated
ACE2 [3]
  ability of rhCHI3L1 to stimulate ACE2 mRNA accumulation: potently inhibited; also recorded: potently ameliorated
  levels of basal ACE2 expression: diminished
[4]
  influenza and other viral infections: inhibit

## LY2857785
CDK9
  Inhibitory potency CDK9: +++
CDK7
  Inhibitory potency CDK7: +
CDK8
  Inhibitory potency CDK8: +++

## CN1CC[C@H](c2c(O)cc(O)c3c(=O)cc(-c4ccccc4Cl)oc23)[C@H](O)C1 [Flavopiridol HCl, Flavopiridol Hydrochloride]
CDK6
  Inhibitory potency CDK6: +++
CDK3
  Inhibitory potency CDK3: +
CDK4
  Inhibitory potency CDK4: +++
CDK1
  Inhibitory potency CDK1: +++
CDK7
  Inhibitory potency CDK7: +
CDK2
  Inhibitory potency CDK2: +++

B1: FRG: murine monoclonal anti-CHI3L1 antibody raised against amino acid 223-234 of human CHI3L1; heavy chain SEQ ID NO: 13, light chain SEQ ID NO: 14 (antibody, V domains shown)
VH: QIQLVQSGPELKKPGETVKISCKASGYTFTNYGMNWVKQAPGKGLKWMGWINTYTGEPTYADDFKGRFAFSLETSASTAYLQINNLRNEDMSTYFCARLGYGKFYVMDYWGQGTSVTVSS
VL: DVVMTQTPLSLPVSLGDQASISCRSSQSLVHSNGNTYLHWYLQKPGQSPKLLIYKVSNRFSGVPDRFSGSGSGTDFTLKISRVEAEDLGVYFCSQSTHVTWTFGGGTKLEIK
ACE2 [5]
  expression of ACE2: abrogated
[1]
  pseudovirus uptake when exogenous rCHI3L1 was not administered: diminished
  rCHI3L1-augmented pseudovirus uptake: abrogated
[2]
  pseudovirus uptake when exogenous CHI3L1 was not administered: diminished
[6]
  delta pseudovirus infection: abrogated
[7]
  CHI3L1 effect on cellular integration of S proteins: abrogated
TMPRSS2, CTSL and FURIN; [8]
  basal and rhCHI3L1-stimulated expression of TMPRSS2, CTSL and FURIN: potently decreased
ACE2 [3]; [8]
  levels of basal ACE2 expression: modestly diminished
ACE2 [3]; Calu-3 cells, rhCHI3L1 24 hours, FRG or KSM 250 ng/mL, RT-PCR
  ability of rhCHI3L1 to stimulate ACE2 mRNA accumulation: potently inhibited; also recorded: potently ameliorated
Human and mouse CHI3L1
  Kd: ~1.1 nM
